In patent US12319726B2, “Method for treating CD40-mediated diseases” (CASE WESTERN RESERVE UNIVERSITY, priority 2008, dated 2025):
Where a SMILES comes first, the peptide text is derived from it. [ ]: non-standard residue; d: D form.

Test system: human retinal endothelial cells
Assay type: cell-based
Description: Peptide consisted of the TRAF2,3 binding site of CD40 that was made cell permeable by linking them to the TAT47-57 cell penetrating peptide. Peptides were synthesized using D-amino acids following reverse amino acid sequence (ri format). The sequences for the CD40-TRAF2,3 blocking peptide was —NH2-rrrqrrkkrgy ghlteqvhaatn-OH (SEQ ID NO: 49). The TAT47-57 sequence is underlined. The peptide contains a proline (p) to histidine (h) substitution (shown in italics) that enhances affinity to TRAF2. Control (scrambled) peptide consisted of NH2-rrrqrrkkrgy ntqalahtgevh-OH (SEQ ID NO: 50). The blocking peptide was also synthesized with Alexa Fluor 488 conjugated via maleimide coupling to an additional Cys in the N terminus. Peptides were manufactured by Biopeptide Co. (San Diego, CA) and were low in endotoxin and >98% pure by HPLC. Peptides were used at 1 μM in vitro experiments and 1 μg for in vivo studies unless otherwise stated. Peptides were not toxic to human Müller and retinal endothelial cells as assessed by alamarBlue cell viability assay (Invitrogen Corporation).
Primary human retinal endothelial cells were obtained as described (9) and cultured in complete medium supplemented with endothelial cell growth supplement from bovine pituitary (15 μg/ml; Sigma Chemical, St Louis, MO) and insulin/transferrin/selenium (Sigma Chemical). Cell identity was confirmed by incorporation of acetylated low-density lipoprotein (>90%). Endothelial cells were used between passages 3 to 6. The human Müller cell line MIO M1 (gift from Dr. Gloria Limb; University College London, UK; >95% vimentin^+, CRALBP^+ and GFAP^−) was also used. Endothelial cells were incubated with multimeric human CD154 to induce CD40 stimulation (obtained from Dr. Richard Kornbluth, Multimeric Biotherapeutics Inc., La Jolla, CA) or with a non-functional CD154 mutant (T147N) as control.
Peptides were tested as described using the mouse endothelial cells mHEVc that expresses a chimera of the extracellular domain of human CD40 and intracytoplasmic domain of mouse CD40 (hmCD40) with either a mutation that prevents recruitment of TRAF2,3 (hmCD40 ΔT2,3) or TRAF6 (hmCD40 ΔT6). These cells were transfected with pGL4.32luc2P/NF-κB-RE/Hygro vector (Promega Corporation, Madison, WI) encoding an NF-κB response element that drives the luciferase reporter gene luc2P (Photinus pyralis). Cells were pre-incubated with peptides for 3 hr. followed by stimulation with human CD154. Luciferase activity was assessed using a Steady-Glo luciferase assay system (Promega Corporation) and a luminometer. The effects of peptides on cell viability were examined using alamarBlue cell viability assay.

CC(C)C[C@@H](NC(=O)[C@@H](Cc1c[nH]cn1)NC(=O)CNC(=O)[C@@H](Cc1ccc(O)cc1)NC(=O)CNC(=O)[C@@H](CCCNC(=N)N)NC(=O)[C@@H](CCCCN)NC(=O)[C@@H](CCCCN)NC(=O)[C@@H](CCCNC(=N)N)NC(=O)[C@@H](CCCNC(=N)N)NC(=O)[C@@H](CCC(N)=O)NC(=O)[C@@H](CCCNC(=N)N)NC(=O)[C@@H](CCCNC(=N)N)NC(=O)[C@H](N)CCCNC(=N)N)C(=O)N[C@@H](C(=O)N[C@H](CCC(=O)O)C(=O)N[C@H](CCC(N)=O)C(=O)N[C@@H](C(=O)N[C@H](Cc1c[nH]cn1)C(=O)N[C@H](C)C(=O)N[C@H](C)C(=O)N[C@@H](C(=O)N[C@H](CC(N)=O)C(=O)O)[C@H](C)O)C(C)C)[C@H](C)O [ri CD40-TRAF2,3 blocking peptide, NH2-rrrqrrkkrgy ghlteqvhaatn-OH] (H-[dR][dR][dR][dQ][dR][dR][dK][dK][dR]G[dY]G[dH][dL][dT][dE][dQ][dV][dH][dA][dA][dT][dN]-OH)
toxicity (alamarBlue cell viability assay): not toxic
